Legend:
[1] = Bleaching of softwood D0 pulp with H2O2 and catalyst, whiteness; settings: 2.5 microM catalyst, 10 kg/t H2O2, 8 kg/t NaOH, 50° C., 1 h, 5% consistency; SD 0.3 points
Method: Softwood chemical mill pulp obtained after the D0 bleaching stage (abbreviated as softwood D0 pulp) was used. The bleaching experiments were conducted on small scale in 100 ml vessels using the pulps at 5% consistency (i.e., 5% oven dry wood pulp; 95% aqueous bleaching liquor). The mixture contained 2.5 microM of the catalyst (as chloride, sulfate, acetate and PF6 salts—see Table), 1 kg/t of MgSO4, 8 kg/t of NaOH and 10 kg/t of H2O2 (kg/t: kg chemicals per ton oven dry pulp). The mixture was manually stirred to ensure good distribution of the bleaching chemicals. Then the vessel was placed in a water bath and stirred regularly at 50° C. for 1 h. All experiments were carried out at least 6 times. As a reference the experiment was conducted without catalyst. The dosages and exact reaction conditions are given in the sections below. After the allocated bleaching times the pulp batches were removed from the vessels, filtered using a Buchner funnel, and washed with 100 ml of water. From the resultant samples of bleached pulp 4×4 cm discs were made having a flat surface on one side. The softwood D0 pulp samples were dried using a L&W Rapid Dryer (Lorentzen and Wetter) at 90° C. for 20 minutes. Whiteness of the bleached pulps was determined using L, a*, b* values as defined by CIE (Commission Internationale de l'Eclairage) of the dried pad was measured using a Minolta spectrophotometer.

[2] = Stability of aqueous catalyst salt solutions (UV/Vis of 1000× diluted solutions); type: physicochemical; settings: 2 weeks; for precipitate formation: pH 2 to 5, 37° C.
Method: Stability of aqueous solutions of chloride, sulphate and acetate salts are provided. Solutions of the bleach catalyst with chloride, sulphate and acetate anion were brought to pH 2, 3, 4 and 5 by hydrochloric acid, sulphuric acid and acetic acid respectively. For the acetate this could only give pH 5. For the lower pH values sulphuric acid was used in the case of acetate. The solutions were kept at 37° C. and after 2 weeks the stability was monitored from the absorptions in the UV/Vis spectra of 1000× diluted solutions.

[3] = Solubility in water at 20° C.; type: physicochemical

SMILES | Whiteness [1] | % (UV/Vis) remaining ([2]; pH 2, 37° C.) | precipitate formation [2] | % (UV/Vis) remaining ([2]; pH 3, 37° C.) | % (UV/Vis) remaining ([2]; pH 4, 37° C.) | % (UV/Vis) remaining ([2]; pH 5, 37° C.) | solubility in water [3] | water solubility [3]
CC(=O)[O-].CC(=O)[O-].CN1CCN(C)CCN(C)CC1.CN1CCN(C)CCN(C)CC1.[Mn+4].[Mn+4].[O-2].[O-2].[O-2] [[Mn2O3(Me3—TACN)2]•(OAc)2, [Mn2O3(Me3-TACN)2].(OAc)2] | 84.0 | 87% | (No precipitate is formed) | 91% | 93% | 95% | more than 70 gram/Liter | 
CN1CCN(C)CCN(C)CC1.CN1CCN(C)CCN(C)CC1.F[P-](F)(F)(F)(F)F.F[P-](F)(F)(F)(F)F.[Mn+4].[Mn+4].[O-2].[O-2].[O-2] [[Mn2O3(Me3—TACN)2]•(PF6)2, [Mn2O3(Me3-TACN)2].(PF6)2] | 84.4 |  |  |  |  |  | 1.08 % (w/w) | 10.8 g per liter
CN1CCN(C)CCN(C)CC1.CN1CCN(C)CCN(C)CC1.[Cl-].[Cl-].[Mn+4].[Mn+4].[O-2].[O-2].[O-2] [[Mn2O3(Me3—TACN)2]•Cl2, [Mn2O3(Me3-TACN)2].(Cl)2] | 84.3 | 100% | (Precipitate is formed at all pH's) | 100% | 97% | 94% |  | 
CN1CCN(C)CCN(C)CC1.CN1CCN(C)CCN(C)CC1.O=S(=O)([O-])[O-].[Mn+4].[Mn+4].[O-2].[O-2].[O-2] [[Mn2O3(Me3—TACN)2]•SO4, [Mn2O3(Me3-TACN)2].SO4] | 84.1 | 78% | (Precipitate only at pH = 5) | 96% | 94% | 98% |  | 

Reference: patent US8722608B2, “Process of bleaching” (Conopco, Inc., priority 2005, dated 2014)
